In patent publication US20250145585A1, “HETEROCYCLIC INHIBITORS OF IGF-1R FOR TREATMENT OF DISEASE” (HORIZON THERAPEUTICS IRELAND DAC, priority 2023, published 2025):

Columns and labels:
IGF-1R [1] = biological target: T1, IGF-1R (Homo sapiens, UniProt P08069); assay: Example B-1: IGF-1R Assay (PC3 cells stimulated with IGF1, AlphaLISA on cell lysates); assay type: cell-based; conditions: compound two hours, IGF1 200 ng/mL for 30 min, read-out: IC50, Biological Activity against IGF-1R (Table B1)
T1 construct: expressed in transfected cells
T1 sequence (P08069 31-1367): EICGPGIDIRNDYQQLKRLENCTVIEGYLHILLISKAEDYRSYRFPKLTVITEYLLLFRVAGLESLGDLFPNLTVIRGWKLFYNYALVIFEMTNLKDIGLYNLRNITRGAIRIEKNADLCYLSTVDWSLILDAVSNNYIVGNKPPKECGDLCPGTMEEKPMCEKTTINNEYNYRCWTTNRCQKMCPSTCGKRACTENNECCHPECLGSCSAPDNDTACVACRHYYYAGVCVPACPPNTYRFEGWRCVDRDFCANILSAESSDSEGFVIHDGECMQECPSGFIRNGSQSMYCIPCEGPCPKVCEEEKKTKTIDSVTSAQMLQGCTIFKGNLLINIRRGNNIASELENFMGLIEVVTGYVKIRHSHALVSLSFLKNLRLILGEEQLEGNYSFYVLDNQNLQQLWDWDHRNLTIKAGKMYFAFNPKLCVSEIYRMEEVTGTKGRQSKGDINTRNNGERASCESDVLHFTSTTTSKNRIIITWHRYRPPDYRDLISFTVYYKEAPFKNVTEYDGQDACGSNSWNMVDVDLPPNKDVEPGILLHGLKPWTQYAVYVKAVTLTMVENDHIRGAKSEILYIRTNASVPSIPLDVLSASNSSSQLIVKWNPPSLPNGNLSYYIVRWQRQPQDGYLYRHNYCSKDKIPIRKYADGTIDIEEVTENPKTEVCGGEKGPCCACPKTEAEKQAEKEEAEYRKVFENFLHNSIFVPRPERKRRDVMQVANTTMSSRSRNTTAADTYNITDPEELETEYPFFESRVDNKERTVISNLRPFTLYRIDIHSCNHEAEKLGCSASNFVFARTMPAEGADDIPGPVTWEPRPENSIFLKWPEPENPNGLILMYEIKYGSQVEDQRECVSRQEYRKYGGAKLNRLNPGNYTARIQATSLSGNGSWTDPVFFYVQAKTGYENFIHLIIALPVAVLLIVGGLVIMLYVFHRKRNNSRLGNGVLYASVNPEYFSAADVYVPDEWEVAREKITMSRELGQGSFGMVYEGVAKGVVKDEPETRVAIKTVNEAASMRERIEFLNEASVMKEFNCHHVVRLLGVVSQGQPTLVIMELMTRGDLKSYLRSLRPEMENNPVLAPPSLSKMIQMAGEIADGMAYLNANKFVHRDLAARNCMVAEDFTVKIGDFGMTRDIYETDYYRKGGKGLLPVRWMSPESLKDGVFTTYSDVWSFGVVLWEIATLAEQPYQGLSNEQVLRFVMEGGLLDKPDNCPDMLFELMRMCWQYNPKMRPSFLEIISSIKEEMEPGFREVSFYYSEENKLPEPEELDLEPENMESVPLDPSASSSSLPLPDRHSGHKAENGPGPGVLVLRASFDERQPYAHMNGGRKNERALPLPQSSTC
Method in brief: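 PC3 cells serum-starved 2 h, treated 2 h with 3-fold serially diluted compound, then stimulated 30 min with IGF1 (200 ng/mL final). Lysates analysed by AlphaLISA; % inhibition calculated relative to vehicle and EC80 controls, IC50 derived.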

IGF-1R [2] = biological target: T1, IGF-1R; assay: Example B-2: IGF-1R Assay (PathHunter cell lines, EC80 agonist challenge, chemiluminescent detection); assay type: cell-based; conditions: PathHunter cells, compound 60 minutes at 37° C., EC80 agonist 3 hours; read-out: IC50, Biological Activity against IGF-1R (Table B2)
Method in brief: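 PathHunter cells were pre-incubated with compound for 60 min at 37° C (1% vehicle), then challenged with EC80 agonist for 3 h at room temperature. Chemiluminescent detection after 1 h gave % inhibition relative to EC80 and vehicle controls, from which IC50 was derived.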

| SMILES | IC50 (IGF-1R [1]) | IC50 (IGF-1R [2]) |
| --- | --- | --- |
| CC1(Nc2cc(CN3C(=O)N(c4ccc(C5(C(F)(F)F)CC5)cc4)C(=O)C3(C)C)ccn2)CC1 [Compound 138, 5,5-dimethyl-1-((2-((1-methylcyclopropyl)amino)pyridin-4-yl)methyl)-3-(4-(1-(trifluoromethyl)cyclopropyl)phenyl) imidazolidine-2,4-dione] | ≤ 500 nM | ≤ 500 nM |
| C[C@@H](CC#N)Nc1cc(CN2C(=O)N(c3ccc(C4(C(F)(F)F)CC4)cc3)C(=O)C2(C)C)ccn1 [Compound 139, (S)-3-((4-((5,5-dimethyl-2,4-dioxo-3-(4-(1-(trifluoromethyl)cyclopropyl)phenyl)imidazolidin-1-yl)methyl)pyridin-2-yl)amino)butanenitrile] | ≤ 500 nM | ≤ 500 nM |
| CC(C)Nc1cc(CN2C(=O)N(c3ccc4c(c3)N(C)C(=O)C43CC3)C(=O)C2(C)C)ccn1 [Compound 185, 1-((2-(isopropylamino)pyridin-4-yl)methyl)-5,5-dimethyl-3-(1′-methyl-2′-oxospiro[cyclopropane-1,3′-indolin]-6′-yl)imidazolidine-2,4-dione] | 2000 to 10000 nM | 2000 to 10000 nM |
| CC(C)Nc1cc(CN2C(=O)N(c3ccc4c(c3)C(=O)N(C)C4(C)C)C(=O)C2(C)C)ccn1 [Compound 186, 1-((2-(isopropylamino)pyridin-4-yl)methyl)-5,5-dimethyl-3-(1,1,2-trimethyl-3-oxoisoindolin-5-yl)imidazolidine-2,4-dione] | 2000 to 10000 nM | 2000 to 10000 nM |
| CC(C)Nc1cc(CN2C(=O)N(c3ccc4c(c3)NC(=O)C43CC3)C(=O)C2(C)C)ccn1 [Compound 187, 1-((2-(isopropylamino)pyridin-4-yl)methyl)-5,5-dimethyl-3-(2′-oxospiro[cyclopropane-1,3′-indolin]-6′-yl)imidazolidine-2,4-dione] | 2000 to 10000 nM | 2000 to 10000 nM |
| CC(C)Nc1cc(CN2C(=O)N(c3ccc4c(c3)N(C)CC4(C)C)C(=O)C2(C)C)ccn1 [Compound 188, 1-((2-(isopropylamino)pyridin-4-yl)methyl)-5,5-dimethyl-3-(1,3,3-trimethylindolin-6-yl)imidazolidine-2,4-dione] | ≤ 500 nM | ≤ 500 nM |
| CC(C)Nc1cc(CN2C(=O)N(c3ccc4c(c3)OCC4(C)C)C(=O)C2(C)C)ccn1 [Compound 189, 3-(3,3-dimethyl-2,3-dihydrobenzofuran-6-yl)-1-((2-(isopropylamino)pyridin-4-yl)methyl)-5,5-dimethylimidazolidine-2,4-dione] | ≤ 500 nM | ≤ 500 nM |
| CC(C)Nc1cc(CN2C(=O)N(c3ccc4c(c3)S(=O)(=O)CC4(C)C)C(=O)C2(C)C)ccn1 [Compound 190, 3-(3,3-dimethyl-1,1-dioxido-2,3-dihydrobenzo[b]thiophen-6-yl)-1-((2-(isopropylamino)pyridin-4-yl)methyl)-5,5-dimethylimidazolidine-2,4-dione] | 2000 to 10000 nM | 2000 to 10000 nM |
| CC(C)Nc1cc(CN2C(=O)N(c3ccc4c(c3)N(C)CC43CCC3)C(=O)C2(C)C)ccn1 [Compound 191, 1-((2-(isopropylamino)pyridin-4-yl)methyl)-5,5-dimethyl-3-(1′-methylspiro[cyclobutane-1,3′-indolin]-6′-yl)imidazolidine-2,4-dione] | ≤ 500 nM | ≤ 500 nM |
| Cn1nc(C(F)(F)F)c2ccc(N3C(=O)N(Cc4ccnc(N)c4)C(C)(C)C3=O)cc21 [Compound 255, 1-((2-aminopyridin-4-yl)methyl)-5,5-dimethyl-3-(1-methyl-3-(trifluoromethyl)-1H-indazol-6-yl)imidazolidine-2,4-dione] | 500 to 2000 nM | 2000 to 10000 nM |
| CC(C)Nc1cc(CN2C(=O)N(c3ccc4c(C(F)(F)F)nn(C)c4c3)C(=O)C2(C)C)ccn1 [Compound 256, 1-((2-(isopropylamino)pyridin-4-yl)methyl)-5,5-dimethyl-3-(1-methyl-3-(trifluoromethyl)-1H-indazol-6-yl)imidazolidine-2,4-dione] | 500 to 2000 nM | 2000 to 10000 nM |
| CC(C)Nc1cc(CN2C(=O)N(c3ccc4c(C5CC5)n[nH]c4c3)C(=O)C2(C)C)ccn1 [Compound 258, 3-(3-cyclopropyl-1H-indazol-6-yl)-1-((2-(isopropylamino)pyridin-4-yl)methyl)-5,5-dimethylimidazolidine-2,4-dione] | 2000 to 10000 nM | 2000 to 10000 nM |
| CC(C)(C)c1ccc(N2C(=O)N(Cc3ccnc(NC4CCCCC4)c3)C(C)(C)C2=O)cc1 [Compound 264, 3-(4-(tert-butyl)phenyl)-1-((2-(cyclohexylamino)pyridin-4-yl)methyl)-5,5-dimethylimidazolidine-2,4-dione] | ≤ 500 nM | 500 to 2000 nM |
| CC(C)Nc1cc(CN2C(=O)N(c3ccc(C(C)(C)C)nc3)C(=O)C2(C)C)ccn1 [Compound 267, 3-(6-(tert-butyl)pyridin-3-yl)-1-((2-(isopropylamino)pyridin-4-yl)methyl)-5,5-dimethylimidazolidine-2,4-dione] | ≤ 500 nM | ≤ 500 nM |
| CC(C)Nc1cc(CN2C(=O)N(c3ccc(C(C)(C)C)cn3)C(=O)C2(C)C)ccn1 [Compound 277, 3-(5-(tert-butyl)pyridin-2-yl)-1-((2-(isopropylamino)pyridin-4-yl)methyl)-5,5-dimethylimidazolidine-2,4-dione] | ≤ 500 nM | ≤ 500 nM |
| C[C@@H](CC#N)Nc1cc(CN2C(=O)N(c3ccc(C(C)(C)C)cc3)C(=O)C2(C)C)ccn1 [Compound 278, (S)-3-((4-((3-(4-(tert-butyl)phenyl)-5,5-dimethyl-2,4-dioxoimidazolidin-1-yl)methyl)pyridin-2-yl)amino)butanenitrile] | ≤ 500 nM | 500 to 2000 nM |
| CC(C)Nc1cc(CN2C(=O)N(c3ccc(SC(F)(F)F)cc3)C(=O)[C@@H]2CO)ccn1 [Compound 298, (S)-5-(hydroxymethyl)-1-((2-(isopropylamino)pyridin-4-yl)methyl)-3-(4-((trifluoromethyl)thio)phenyl)imidazolidine-2,4-dione] | > 10000 nM | > 10000 nM |
| CC(C)Nc1cc(CN2C(=O)N(c3ccc(SC(F)(F)F)cc3)C(=O)C2(C)CO)ccn1 (stereo not drawn) [Compound 299, 5-(hydroxymethyl)-1-((2-(isopropylamino)pyridin-4-yl)methyl)-5-methyl-3-(4-((trifluoromethyl)thio)phenyl)imidazolidine-2,4-dione] | 2000 to 10000 nM | 2000 to 10000 nM |
| CC1(C)C(=O)N(c2ccc(SC(F)(F)F)cc2)C(=O)N1Cc1ccnc(NC2CCOCC2)c1 [Compound 310, 5,5-dimethyl-1-((2-((tetrahydro-2H-pyran-4-yl)amino)pyridin-4-yl)methyl)-3-(4-((trifluoromethyl)thio)phenyl)imidazolidine-2,4-dione] | ≤ 500 nM | ≤ 500 nM |
| CC1(C)C(=O)N(c2ccc(S(=O)(=O)C(F)(F)F)cc2)C(=O)N1Cc1ccnc(NC2CCOCC2)c1 [Compound 316, 5,5-dimethyl-1-((2-((tetrahydro-2H-pyran-4-yl)amino)pyridin-4-yl)methyl)-3-(4-((trifluoromethyl)sulfonyl)phenyl) imidazolidine-2,4-dione] | ≤ 500 nM | ≤ 500 nM |
| CC1(C)C(=O)N(c2ccc(S(=O)(=O)C(F)(F)F)cc2)C(=O)N1Cc1ccnc(NCC(F)F)c1 [Compound 317, 1-((2-((2,2-difluoroethyl)amino)pyridin-4-yl)methyl)-5,5-dimethyl-3-(4-((trifluoromethyl)sulfonyl)phenyl) imidazolidine-2,4-dione] | ≤ 500 nM | ≤ 500 nM |
| COC[C@@H](C)Nc1cc(CN2C(=O)N(c3ccc(S(=O)(=O)C(F)(F)F)cc3)C(=O)C2(C)C)ccn1 [Compound 318, (R)-1-((2-((1-methoxypropan-2-yl)amino)pyridin-4-yl)methyl)-5,5-dimethyl-3-(4-((trifluoromethyl)sulfonyl)phenyl) imidazolidine-2,4-dione] | ≤ 500 nM | ≤ 500 nM |
| CC1(C)C(=O)N(c2ccc(S(=O)(=O)C(F)(F)F)cc2)C(=O)N1Cc1ccnc(N[C@H]2[C@@H]3COC[C@@H]32)c1 [Compound 319, 1-((2-(((1R,5S,6r)-3-oxabicyclo[3.1.0]hexan-6-yl)amino)pyridin-4-yl)methyl)-5,5-dimethyl-3-(4-((trifluoromethyl)sulfonyl)phenyl) imidazolidine-2,4-dione] | ≤ 500 nM | ≤ 500 nM |
| CC1(C)C(=O)N(c2ccc(SC(F)(F)F)cc2)C(=O)N1Cc1ccnc(NC(=O)Nc2cccc(F)c2)c1 [Compound 373, 1-(4-((5,5-dimethyl-2,4-dioxo-3-(4-((trifluoromethyl)thio)phenyl)imidazolidin-1-yl)methyl)pyridin-2-yl)-3-(3-fluorophenyl)urea] | ≤ 500 nM | ≤ 500 nM |
| CC1(C)C(=O)N(c2ccc(SC(F)(F)F)cc2)C(=O)N1Cc1ccnc(N)c1Br [Compound 388, 1-((2-amino-3-bromopyridin-4-yl)methyl)-5,5-dimethyl-3-(4-((trifluoromethyl)thio)phenyl)imidazolidine-2,4-dione] | ≤ 500 nM | ≤ 500 nM |
| CC1(C)C(=O)N(c2ccc(SC(F)(F)F)cc2)C(=O)N1Cc1ccnc(N)c1P(C)(C)=O [Compound 389, 1-((2-amino-3-(dimethylphosphoryl)pyridin-4-yl)methyl)-5,5-dimethyl-3-(4-((trifluoromethyl)thio)phenyl) imidazolidine-2,4-dione] | 500 to 2000 nM | 500 to 2000 nM |
| CC(C)Nc1nccc(CN2C(=O)N(c3ccc(SC(F)(F)F)cc3)C(=O)C2(C)C)c1Br [Compound 390, 1-((3-bromo-2-(isopropylamino)pyridin-4-yl)methyl)-5,5-dimethyl-3-(4-((trifluoromethyl)thio)phenyl)imidazolidine-2,4-dione] | 2000 to 10000 nM | ≤ 500 nM |
